# Tests used:
# Assay type in all cases: biochemical
# [1] = Carboxyfluorescein dye leakage from LUVs, Aβ42; conditions: Aβ42 50 μM
# Protocol: Carboxyfluorescein dye loaded Large Unilamellar Vesicles (LUVs) preparation LUVs were prepared using a mixture of DMPC, Cholesterol, and GM1 (68:30:2, molar). Lipids were dissolved in chloroform and methanol (2:1, 2 mM) in a glass vessel, and solvents were evaporated using nitrogen gas to make lipid films.3 The lipid films were hydrated with 500 µL of carboxyfluorescein (CF) solution (200 µM) in 50mM HEPES buffer of pH 7.4. Then, the solution was vortexed vigorously for 30 min for emulsification. Then the glass vial was dipped into the liquid nitrogen for instant cooling, and after 5 min the frozen solution was dipped into a water bath at 50-60 °C for freeze-thawing.4This step was repeated five times. The excess dye was removed by ultracentrifugation at 20000 rpm, the supernatant […]
# Carboxyfluorescein dye loaded Large Unilamellar Vesicles (LUVs) Leakage Study For leakage study, peptide and lipids were taken in 1:20 molar ratios, and the dye release was monitored by fluorescence emission. Emission was measured at 516 nm, and excitation at 485 nm, 3 nm of bandwidth on a Fluoromax-4, Horiba instrument. The complete dye release from the vesicle was obtained using Triton X-100, and the final fluorescence was measured. The % leakage was calculated as, % 𝐿𝑒𝑎𝑘𝑎𝑔𝑒 = (𝑂𝑏𝑠𝑒𝑟𝑣𝑒𝑑 𝑓𝑙𝑢𝑜𝑟𝑒𝑠𝑐𝑒𝑛𝑐𝑒 –𝑖𝑛𝑖𝑡𝑖𝑎𝑙 𝑓𝑙𝑢𝑜𝑟𝑒𝑠𝑐𝑒𝑛𝑐𝑒) × 100 % … ..(4) (𝑇𝑜𝑡𝑎𝑙 𝑓𝑙𝑢𝑜𝑟𝑒𝑠𝑐𝑒𝑛𝑐𝑒 ‒ 𝑖𝑛𝑖𝑡𝑖𝑎𝑙 𝑓𝑙𝑢𝑜𝑟𝑒𝑠𝑐𝑒𝑛𝑐𝑒) […]
# Aβ42 [2] = experiment: DLS of Aβ42 aggregates; conditions: untreated Aβ42 50 μM
# Protocol: Dynamic light scattering (DLS) measurements
# DLS1,2 measurements were performed with the different Aβ42peptide samples (oligomers and mature fibrils) on a Malvern nano zetasizer (Malvern, UK) using a laser source with λ=633 nm and a detector at a scattering angle of θ = 173 degrees.
# for the ThT assay, in the absence of ThT dye, for 1h, 5h, 10h and 20h min to generate oligomers and mature fibrils, respectively and the hydrodynamic diameter of them was immediately examined by DLS.
# Prior to the analysis, samples were filtered through 0.45 µm PVDF membrane. The samples were placed in a disposable cuvette and held at the corresponding temperature during the analysis. For each sample, the analyses were recorded three times with 11 sub-runs using the multimodal mode. The Z-average diameter was calculated from the correlation function using Malvern technology software. g.
# Aβ42 [3] = experiment: TEM of early events of Aβ42 aggregation; conditions: absence of SP1; 1, 5, 10, 20 h
# Protocol: Transmission Electron Microscopy (TEM)
# 10μL aliquot from the stock peptide solution after incubation of 10 days (7 days for inhibition study) was added over the carbon-coated copper grid. Then 2% uranyl acetate solution (10μL) was added onto it and allowed to float for 1 min. The excess solution was removed using a blotting paper. The sample was dried at room temperature and kept in desiccators before taking TEM analysis on JEOL (Model: JEM 2100)
substance,measurement,setting,value
Aβ42: Aβ42 peptide,dye leakage from LUVs,"[1]; absence of SP1, 5 h aged",~55%
same,dye leakage from LUVs,"[1]; absence of SP1, 10 h aged",~23%
same,hydrodynamic diameter,Aβ42 [2]; 1 h,~8 nm
same,hydrodynamic diameter,Aβ42 [2]; 10 h,~825 nm
same,hydrodynamic diameter,Aβ42 [2]; 20 h,~940 nm
same,morphology of Aβ42 aggregates (TEM),Aβ42 [3],exhibited smaller aggregates at 1 h or 5 h

# From paper PMC8179358, “An explicitly designed paratope of amyloid-β prevents neuronal apoptosis in vitro and hippocampal damage in rat brain” (Chemical Science, 2020)
